Assays:
[1] = target: T1, Purified recombinant ADAMTS-7 (rat prodomain/human catalytic domain, SEQ ID No. 01 or 02) (Homo sapiens, UniProt Q9UKP4); experiment: Assay for ADAMTS-7 enzymatic activity (FRET substrate cleavage); type: biochemical; details: FRET substrate SEQ ID No. 11, 120 min at 32° C.; read-out: ADAMTS7-IC50
T1 construct: rat ADAMTS-7 signal peptide + prodomain (rat 1-217, Q1EHB3) (N); 2xStrep tag (C); 6xHis tag (C); made in house; host or cells: Expi293 cells
T1 sequence (Q9UKP4 237-537): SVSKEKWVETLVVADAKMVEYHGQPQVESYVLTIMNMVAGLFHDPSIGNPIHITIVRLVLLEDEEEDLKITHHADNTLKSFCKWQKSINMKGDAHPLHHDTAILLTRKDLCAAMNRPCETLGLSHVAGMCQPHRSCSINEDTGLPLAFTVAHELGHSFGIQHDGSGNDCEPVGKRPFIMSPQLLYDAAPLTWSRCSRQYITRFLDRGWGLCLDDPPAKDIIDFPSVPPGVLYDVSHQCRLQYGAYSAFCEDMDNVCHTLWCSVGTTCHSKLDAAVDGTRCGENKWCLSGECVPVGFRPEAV
Outline: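 IC50 values were fitted from percent inhibition across test-compound concentrations. Fluorescence gain (ex 485, em 520 nm) reports cleavage of a thrombospondin-1 (275-289) FRET peptide with QXL520 quencher, after 120 min at 32 °C. The enzyme, about 20 nM, was in HEPES pH 8.0 buffer with NaCl, CaCl2, ZnCl2 and Brij.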

ADAMTS4 = target: T2, ADAMTS4 (Homo sapiens, UniProt O75173); experiment: Selectivity assay for ADAMTS-7 modulators (FRET), ADAMTS4; type: biochemical; details: 50 nM enzyme (R&D 4307-AD), 1 μM Dabcyl/Edans FRET substrate, 120 min at 32° C.
T2 construct: purchased R&D 4307-AD
T2 sequence (O75173 213-685 limits assumed): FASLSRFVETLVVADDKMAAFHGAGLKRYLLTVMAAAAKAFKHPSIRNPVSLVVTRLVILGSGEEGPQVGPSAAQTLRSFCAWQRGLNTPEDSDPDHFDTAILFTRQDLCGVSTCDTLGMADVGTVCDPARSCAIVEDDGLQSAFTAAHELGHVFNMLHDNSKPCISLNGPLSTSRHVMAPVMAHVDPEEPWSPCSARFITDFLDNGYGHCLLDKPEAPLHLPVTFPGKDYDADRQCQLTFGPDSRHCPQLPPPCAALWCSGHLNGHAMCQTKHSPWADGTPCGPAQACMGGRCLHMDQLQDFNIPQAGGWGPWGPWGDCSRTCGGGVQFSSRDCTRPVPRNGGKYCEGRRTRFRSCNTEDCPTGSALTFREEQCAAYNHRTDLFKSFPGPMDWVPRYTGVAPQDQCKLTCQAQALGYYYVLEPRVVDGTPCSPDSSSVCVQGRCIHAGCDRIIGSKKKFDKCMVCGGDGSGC
Outline: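 Enzyme in 50 mM Tris pH 7.5, 150 mM NaCl, 10 mM CaCl2, 0.05% Brij, preincubated with compound in DMSO; reaction started with FRET substrate. Fluorescence increase read after 120 min at 32° C; IC50 from percent inhibition versus compound concentration.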

**Q.** Which results are given for `Cn1ccnc1C1(CNC(=O)c2cnn(-c3cc(F)c(F)c(F)c3)n2)NC(=O)NC1=O` (stereo not drawn) [Example 146, ent-N-{[4-(1-methyl-1H-imidazol-2-yl)-2,5-dioxoimidazolidin-4-yl]methyl}-2-(3,4,5-trifluorophenyl)-2H-1,2,3-triazole-4-carboxamide]?
**A.** IC50 [1]: 3 nM; IC50 (ADAMTS4): 108 nM

**Q.** Which IC50 [1] does the source give for `O=C1NC(=O)C(CNC(=O)c2cnn(-c3ccc(F)cc3)n2)(c2cscn2)N1` (stereo not drawn) [Example 148, ent-N-{[2,5-dioxo-4-(1,3-thiazol-4-yl)imidazolidin-4-yl]methyl}-2-(4-fluorophenyl)-2H-1,2,3-triazole-4-carboxamide] here?
**A.** 12 nM

**Q.** And the IC50 (ADAMTS4)?
**A.** 2500 nM

**Q.** For `O=C1NC(=O)[C@](CNC(=O)c2cnn(-c3ccc(F)cc3Cl)n2)(C2CC2)N1` [Example 151, 2-(2-chloro-4-fluorophenyl)-N-{[(4R)-4-cyclopropyl-2,5-dioxoimidazolidin-4-yl]methyl}-2H-1,2,3-triazole-4-carboxamide], which IC50 [1] is on record?
**A.** 320 nM

**Q.** What about the IC50 (ADAMTS4) of the same molecule?
**A.** 17000 nM

**Q.** Which IC50 [1] does the source give for `O=C1NC(=O)[C@](CNC(=O)c2cnn(-c3ccc(Cl)cc3F)n2)(C2CC2)N1` [Example 160, 2-(4-chloro-2-fluorophenyl)-N-{[(4R)-4-cyclopropyl-2,5-dioxoimidazolidin-4-yl]methyl}-2H-1,2,3-triazole-4-carboxamide] here?
**A.** 60 nM

**Q.** And the IC50 (ADAMTS4)?
**A.** 1000 nM

**Q.** With `O=C1NC(=O)[C@](CNC(=O)c2cnn(-c3ccc(Cl)cc3Cl)n2)(C2CC2)N1` [Example 161, N-{[(4R)-4-cyclopropyl-2,5-dioxoimidazolidin-4-yl]methyl}-2-(2,4-dichlorophenyl)-2H-1,2,3-triazole-4-carboxamide] as the molecule, how does the IC50 [1] read?
**A.** 130 nM

**Q.** And the IC50 (ADAMTS4)?
**A.** 7100 nM

**Q.** With “ent-N-({4-[1-(difluoromethyl)-1H-pyrazol-5-yl]-2,5-dioxoimidazolidin-4-yl}methyl)-2-(4-fluorophenyl)-2H-1,2,3-triazole-4-carboxamide [Example 129]” as the molecule, how does the IC50 [1] read?
**A.** 18 nM

**Q.** What about the IC50 (ADAMTS4) of the same molecule?
**A.** 1700 nM

From patent US20230027985A1, “SUBSTITUTED HYDANTOINAMIDES AS ADAMTS7 ANTAGONISTS” (Bayer Aktiengesellschaft, priority 2019, published 2023)
